Data published in US9822131B2, “Certain chemical entities, compositions and methods” (Intellikine LLC, priority 2008, dated 2017).

Target: T1, PI3K δ (Homo sapiens, UniProt O00329)
T1 construct: purchased Upstate
Test: PI3K δ in vitro kinase inhibition assay
Type: biochemical
Settings: not given

T1 sequence (O00329 whole entry): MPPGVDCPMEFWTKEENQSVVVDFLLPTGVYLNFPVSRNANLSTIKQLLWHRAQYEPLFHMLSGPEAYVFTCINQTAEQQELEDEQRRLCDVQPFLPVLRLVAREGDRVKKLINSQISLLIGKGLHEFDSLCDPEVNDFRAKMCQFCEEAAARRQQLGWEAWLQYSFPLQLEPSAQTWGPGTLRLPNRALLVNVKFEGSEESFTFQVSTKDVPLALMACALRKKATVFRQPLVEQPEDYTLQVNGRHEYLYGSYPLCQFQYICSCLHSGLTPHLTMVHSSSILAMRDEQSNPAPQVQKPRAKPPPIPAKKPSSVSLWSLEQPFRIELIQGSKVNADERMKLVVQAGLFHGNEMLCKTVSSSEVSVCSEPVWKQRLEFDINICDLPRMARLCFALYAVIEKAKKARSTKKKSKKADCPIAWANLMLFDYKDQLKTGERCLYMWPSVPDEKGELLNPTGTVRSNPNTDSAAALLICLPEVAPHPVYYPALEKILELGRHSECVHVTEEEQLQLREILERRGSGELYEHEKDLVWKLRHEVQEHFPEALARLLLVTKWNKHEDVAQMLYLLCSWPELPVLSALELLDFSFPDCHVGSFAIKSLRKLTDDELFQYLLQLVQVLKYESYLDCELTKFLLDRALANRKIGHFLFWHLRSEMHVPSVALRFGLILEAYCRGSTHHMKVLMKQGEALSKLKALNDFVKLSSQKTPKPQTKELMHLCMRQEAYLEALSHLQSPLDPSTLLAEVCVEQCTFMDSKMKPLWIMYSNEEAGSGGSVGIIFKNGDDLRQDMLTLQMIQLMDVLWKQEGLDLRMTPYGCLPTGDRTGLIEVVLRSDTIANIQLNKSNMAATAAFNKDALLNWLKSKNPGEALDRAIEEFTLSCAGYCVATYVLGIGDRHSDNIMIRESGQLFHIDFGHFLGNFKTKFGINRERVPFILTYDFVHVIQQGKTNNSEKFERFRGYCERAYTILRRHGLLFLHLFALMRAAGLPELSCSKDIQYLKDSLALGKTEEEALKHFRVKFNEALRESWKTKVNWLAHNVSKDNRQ
T1 sequence (P27986 whole entry partner): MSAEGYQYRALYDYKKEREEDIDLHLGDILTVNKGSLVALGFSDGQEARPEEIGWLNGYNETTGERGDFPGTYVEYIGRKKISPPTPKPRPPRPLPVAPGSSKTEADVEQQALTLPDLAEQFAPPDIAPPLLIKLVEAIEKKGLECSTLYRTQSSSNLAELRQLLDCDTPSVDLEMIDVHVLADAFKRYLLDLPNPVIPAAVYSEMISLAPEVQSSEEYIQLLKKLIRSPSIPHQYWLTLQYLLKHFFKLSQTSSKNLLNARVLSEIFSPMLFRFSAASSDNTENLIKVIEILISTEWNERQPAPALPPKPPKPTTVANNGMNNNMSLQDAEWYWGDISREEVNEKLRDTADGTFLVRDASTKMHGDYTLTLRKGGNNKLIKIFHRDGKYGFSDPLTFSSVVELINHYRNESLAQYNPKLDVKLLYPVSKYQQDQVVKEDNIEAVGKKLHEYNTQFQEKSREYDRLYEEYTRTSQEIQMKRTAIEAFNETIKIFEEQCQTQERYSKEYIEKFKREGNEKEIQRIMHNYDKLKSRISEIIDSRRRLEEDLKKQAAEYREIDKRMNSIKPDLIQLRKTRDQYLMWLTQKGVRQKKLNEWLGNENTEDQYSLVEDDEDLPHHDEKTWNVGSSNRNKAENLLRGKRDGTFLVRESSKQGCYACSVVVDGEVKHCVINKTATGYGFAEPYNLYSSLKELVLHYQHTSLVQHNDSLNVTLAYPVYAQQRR

| IC50 [µM] | Structure (SMILES) |
| --- | --- |
| < 10 | Cc1cccnc1-n1c(Cn2nc(I)c3c(N)ncnc32)cc2cccc(C)c2c1=O [Compound 92] |
| < 1 | Cc1ccccc1-n1c(Cn2nc(Br)c3c(N)ncnc32)nc2snc(C)c2c1=O [Compound 239] |

Target: T2, PI3K γ (Homo sapiens, UniProt P48736)
T2 construct: purchased Sigma
T2 sequence (P48736 whole entry): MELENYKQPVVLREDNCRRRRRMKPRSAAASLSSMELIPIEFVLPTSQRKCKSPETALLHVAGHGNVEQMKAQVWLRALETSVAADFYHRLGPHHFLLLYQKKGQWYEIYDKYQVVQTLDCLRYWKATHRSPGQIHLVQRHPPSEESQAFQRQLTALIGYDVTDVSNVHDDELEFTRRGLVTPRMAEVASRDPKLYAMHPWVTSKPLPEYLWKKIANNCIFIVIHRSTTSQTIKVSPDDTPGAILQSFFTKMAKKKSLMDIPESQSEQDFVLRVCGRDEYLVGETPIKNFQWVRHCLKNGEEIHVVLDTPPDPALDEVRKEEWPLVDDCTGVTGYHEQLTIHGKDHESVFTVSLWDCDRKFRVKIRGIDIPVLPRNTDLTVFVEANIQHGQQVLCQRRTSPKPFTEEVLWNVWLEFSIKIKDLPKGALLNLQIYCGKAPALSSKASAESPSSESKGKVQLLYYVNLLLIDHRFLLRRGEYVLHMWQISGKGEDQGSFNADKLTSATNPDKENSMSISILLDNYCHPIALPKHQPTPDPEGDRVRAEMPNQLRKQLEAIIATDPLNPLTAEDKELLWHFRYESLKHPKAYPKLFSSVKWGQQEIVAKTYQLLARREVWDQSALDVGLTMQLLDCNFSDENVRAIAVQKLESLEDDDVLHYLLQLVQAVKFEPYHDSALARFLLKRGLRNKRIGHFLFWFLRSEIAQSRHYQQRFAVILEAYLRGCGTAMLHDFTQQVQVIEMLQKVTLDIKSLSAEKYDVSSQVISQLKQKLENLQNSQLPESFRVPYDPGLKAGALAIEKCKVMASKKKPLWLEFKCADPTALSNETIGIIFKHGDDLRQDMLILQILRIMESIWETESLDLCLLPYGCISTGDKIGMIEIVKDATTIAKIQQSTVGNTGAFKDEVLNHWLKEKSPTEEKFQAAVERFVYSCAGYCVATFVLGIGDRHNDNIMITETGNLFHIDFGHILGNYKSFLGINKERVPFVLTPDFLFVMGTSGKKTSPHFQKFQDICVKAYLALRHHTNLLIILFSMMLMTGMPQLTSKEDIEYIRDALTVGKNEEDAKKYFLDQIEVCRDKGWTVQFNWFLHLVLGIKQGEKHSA
Test: PI3K γ in vitro kinase inhibition assay
Type: biochemical
Settings: not given

| IC50 [µM] | Structure (SMILES) |
| --- | --- |
| < 10 | Cc1cccnc1-n1c(Cn2nc(I)c3c(N)ncnc32)cc2cccc(C)c2c1=O [Compound 92] |
| > 10 | Cc1ccccc1-n1c(Cn2nc(Br)c3c(N)ncnc32)nc2snc(C)c2c1=O [Compound 239] |

Target: T3, PI3K β (Homo sapiens, UniProt P42338)
T3 construct: purchased Upstate
T3 sequence (P42338 whole entry): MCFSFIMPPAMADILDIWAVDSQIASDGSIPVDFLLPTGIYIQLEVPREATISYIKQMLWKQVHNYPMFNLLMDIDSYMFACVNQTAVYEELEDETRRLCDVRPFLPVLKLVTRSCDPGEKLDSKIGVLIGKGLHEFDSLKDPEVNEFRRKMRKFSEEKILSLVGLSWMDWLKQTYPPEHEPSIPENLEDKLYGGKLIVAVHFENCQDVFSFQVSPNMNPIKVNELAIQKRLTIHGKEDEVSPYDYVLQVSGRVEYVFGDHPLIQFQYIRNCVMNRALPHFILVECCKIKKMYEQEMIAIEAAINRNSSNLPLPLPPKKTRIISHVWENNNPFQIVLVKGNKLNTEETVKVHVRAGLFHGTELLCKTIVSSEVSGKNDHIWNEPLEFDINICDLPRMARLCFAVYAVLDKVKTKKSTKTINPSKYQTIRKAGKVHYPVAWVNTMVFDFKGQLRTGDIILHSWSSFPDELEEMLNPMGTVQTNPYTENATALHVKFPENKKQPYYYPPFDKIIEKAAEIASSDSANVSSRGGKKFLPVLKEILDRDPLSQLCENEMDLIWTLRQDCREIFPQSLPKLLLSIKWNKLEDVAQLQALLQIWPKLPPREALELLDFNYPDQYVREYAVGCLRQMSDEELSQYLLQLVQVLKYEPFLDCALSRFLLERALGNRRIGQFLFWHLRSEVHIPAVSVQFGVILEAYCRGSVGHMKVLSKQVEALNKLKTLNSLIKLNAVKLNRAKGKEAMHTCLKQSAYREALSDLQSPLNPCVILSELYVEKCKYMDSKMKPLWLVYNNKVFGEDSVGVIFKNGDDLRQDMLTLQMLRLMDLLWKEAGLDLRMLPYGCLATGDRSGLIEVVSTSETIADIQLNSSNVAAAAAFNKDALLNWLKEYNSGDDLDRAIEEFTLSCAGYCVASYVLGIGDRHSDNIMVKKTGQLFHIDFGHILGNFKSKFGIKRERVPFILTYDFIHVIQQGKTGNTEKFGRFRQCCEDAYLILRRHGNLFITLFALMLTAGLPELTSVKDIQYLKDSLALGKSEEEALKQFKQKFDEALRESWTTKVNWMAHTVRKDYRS
T3 sequence (P27986 whole entry partner): as the sequence (P27986 whole entry partner) above
Test: PI3K β in vitro kinase inhibition assay
Type: biochemical
Settings: not given

| IC50 [µM] | Structure (SMILES) |
| --- | --- |
| > 10 | Cc1ccccc1-n1c(Cn2nc(Br)c3c(N)ncnc32)nc2snc(C)c2c1=O [Compound 239] |

Target: T4, PI3K α (Homo sapiens, UniProt P42336)
T4 construct: purchased Upstate
T4 sequence (P42336 whole entry): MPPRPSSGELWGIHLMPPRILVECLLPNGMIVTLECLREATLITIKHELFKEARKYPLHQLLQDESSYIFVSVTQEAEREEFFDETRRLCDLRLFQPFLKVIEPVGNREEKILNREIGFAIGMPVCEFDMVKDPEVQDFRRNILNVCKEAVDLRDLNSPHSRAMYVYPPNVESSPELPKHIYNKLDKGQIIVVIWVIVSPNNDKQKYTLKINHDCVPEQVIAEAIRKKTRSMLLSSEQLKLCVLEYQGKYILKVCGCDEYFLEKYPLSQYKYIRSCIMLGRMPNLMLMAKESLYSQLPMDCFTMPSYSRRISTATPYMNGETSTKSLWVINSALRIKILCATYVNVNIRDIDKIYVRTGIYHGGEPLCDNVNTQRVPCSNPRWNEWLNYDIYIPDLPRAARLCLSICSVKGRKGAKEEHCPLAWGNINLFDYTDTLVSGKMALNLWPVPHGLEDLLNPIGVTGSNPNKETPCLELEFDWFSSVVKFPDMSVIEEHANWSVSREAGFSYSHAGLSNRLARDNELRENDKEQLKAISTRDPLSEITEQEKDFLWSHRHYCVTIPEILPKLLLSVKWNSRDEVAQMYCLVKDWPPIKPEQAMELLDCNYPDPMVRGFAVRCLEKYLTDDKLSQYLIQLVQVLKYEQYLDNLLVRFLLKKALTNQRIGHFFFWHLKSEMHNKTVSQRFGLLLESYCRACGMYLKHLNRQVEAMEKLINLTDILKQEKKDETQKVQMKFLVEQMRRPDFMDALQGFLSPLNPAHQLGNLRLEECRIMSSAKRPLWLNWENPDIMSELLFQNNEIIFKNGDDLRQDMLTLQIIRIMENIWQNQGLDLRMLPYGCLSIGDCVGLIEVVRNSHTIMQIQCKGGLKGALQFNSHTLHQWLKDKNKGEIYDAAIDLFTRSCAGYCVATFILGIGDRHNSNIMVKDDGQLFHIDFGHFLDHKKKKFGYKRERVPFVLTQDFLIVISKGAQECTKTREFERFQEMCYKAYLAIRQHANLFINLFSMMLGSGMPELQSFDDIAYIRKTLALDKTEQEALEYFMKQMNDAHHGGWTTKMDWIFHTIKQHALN
T4 sequence (P27986 whole entry partner): as the sequence (P27986 whole entry partner) above
Test: PI3K α in vitro kinase inhibition assay
Type: biochemical
Settings: not given

| IC50 [µM] | Structure (SMILES) |
| --- | --- |
| > 10 | Cc1ccccc1-n1c(Cn2nc(Br)c3c(N)ncnc32)nc2snc(C)c2c1=O [Compound 239] |

System: Balb/c splenic B cells
Test: B cell activation and proliferation assay (Alamar Blue)
Type: cell-based
Settings: Mus musculus, read-out: B cell proliferation EC50
Experimental: The assay is performed in a 96 well microtiter plate using Alamar Blue reduction. Balb/c splenic B cells are purified over a Ficoll-Paque™ PLUS gradient followed by magnetic cell separation using a MACS B cell Isolation Kit (Miletenyi). Cells are plated in 90 ul at 50,000 cells/well in B Cell Media (RPMI+10% FBS+Penn/Strep+50 uM bME+5 mM HEPES). A compound disclosed herein is diluted in B Cell Media and added in a 10 ul volume. Plates are incubated for 30 min at 37 C and 5% CO2 (0.2% DMSO final concentration). A 50 ul B cell stimulation cocktail is then added containing either 10 ug/ml LPS or 5 ug/ml F(ab′)2 Donkey anti-mouse IgM plus 2 ng/ml recombinant mouse IL4 in B Cell Media. […] A volume of 15 uL of Alamar Blue reagent is added to each well and plates are incubated for 5 hours at 37 C and 5% CO2. Alamar Blue fluoresce is read at 560Ex/590Em, and IC50 or EC50 values are calculated using GraphPad Prism 5.

| Structure (SMILES) | EC50 [nM] |
| --- | --- |
| CCc1ccccc1-n1c(Cn2nc(-c3cccc(O)c3)c3c(N)ncnc32)cc2cccc(C)c2c1=O [Compound 88] | < 100 |
| CCc1ccccc1-n1c(Cn2nc(-c3cc(O)cc(F)c3)c3c(N)ncnc32)cc2cccc(C)c2c1=O [Compound 89] | < 100 |
| Cc1cccc2cc(Cn3nc(-c4cc(O)cc(F)c4)c4c(N)ncnc43)n(-c3ccccc3O)c(=O)c12 [Compound 90] | < 100 |
| Cc1cccc2cc(Cn3nc(C#C[C@@H](C)O)c4c(N)ncnc43)n(-c3ccccc3O)c(=O)c12 [Compound 91] | < 1000 |
| Cc1cccc2cc(Cn3nc(-c4cc(O)cc(F)c4)c4c(N)ncnc43)n(-c3ccccc3C(C)C)c(=O)c12 [Compound 95] | < 100 |
| Cc1cccc2cc(Cn3nc(-c4cccc(O)c4)c4c(N)ncnc43)n(-c3ccccc3Cl)c(=O)c12 [Compound 96] | < 100 |
| Cc1cccc2cc(Cn3nc(-c4cc(O)cc(F)c4)c4c(N)ncnc43)n(-c3ccccc3Cl)c(=O)c12 [Compound 97] | < 100 |
| Cc1cccc2cc(Cn3nc(C#C[C@@H](C)O)c4c(N)ncnc43)n(-c3ccccc3Cl)c(=O)c12 [Compound 98] | < 1000 |
| CCc1ccccc1-n1c(Cn2nc(C#C[C@@H](C)O)c3c(N)ncnc32)cc2cccc(C)c2c1=O [Compound 99] | < 100 |
| Cc1cccc2cc(Cn3nc(C#C[C@@H](C)O)c4c(N)ncnc43)n(C3CC3)c(=O)c12 [Compound 100] | < 1000 |
| Cc1cccc2cc(Cn3nc(-c4cc(O)cc(F)c4)c4c(N)ncnc43)n(C3CC3)c(=O)c12 [Compound 101] | < 100 |
| Cc1cccc2cc(Cn3nc(-c4cccc(O)c4)c4c(N)ncnc43)n(C3CC3)c(=O)c12 [Compound 102] | < 100 |
| Cc1cccc2cc(Cn3nc(I)c4c(N)ncnc43)n(-c3ccccc3OCCN3CCOCC3)c(=O)c12 [Compound 103] | < 1000 |
| Cc1cccc2cc(Cn3nc(I)c4c(N)ncnc43)n(C3CCC3)c(=O)c12 [Compound 105] | < 1000 |
| COc1cccc(-c2nn(Cc3cc4cccc(C)c4c(=O)n3-c3ccccc3C)c3ncnc(N)c23)c1 [Compound 106] | < 1000 |
| Cc1cccc2cc(Cn3nc(I)c4c(N)ncnc43)n(C)c(=O)c12 [Compound 107] | < 1000 |
| Cc1cccc2cc(Cn3nc(-c4cc(O)cc(F)c4)c4c(N)ncnc43)n(-c3ccccc3OCCN3CCOCC3)c(=O)c12 [Compound 108] | < 100 |
| Cc1cccc2cc(Cn3nc(-c4cccc(O)c4)c4c(N)ncnc43)n(-c3ccccc3OCCN3CCOCC3)c(=O)c12 [Compound 109] | < 100 |
| Cc1cccc2cc(Cn3nc(-c4cc(O)cc(F)c4)c4c(N)ncnc43)n(C3CCCCC3)c(=O)c12 [Compound 110] | < 1000 |
| Cc1cccc2cc(Cn3nc(-c4cccc(O)c4)c4c(N)ncnc43)n(C3CCCCC3)c(=O)c12 [Compound 111] | < 1000 |
| Cc1cccc2cc(Cn3nc(C#C[C@@H](C)O)c4c(N)ncnc43)n(C3CCCCC3)c(=O)c12 [Compound 112] | < 10000 |
| Cc1ccccc1-n1c(Cn2nc(-c3cc(O)cc(F)c3)c3c(N)nccc32)cc2cccc(C)c2c1=O [Compound 113] | < 100 |

| Structure (SMILES) | EC50 [nM] |
| --- | --- |
| Cc1cccc2cc(Cn3nc(-c4cccc(O)c4)c4c(N)ncnc43)n(C3CCC3)c(=O)c12 [Compound 114] | < 1000 |
| Cc1cccc2cc(Cn3nc(-c4cc(O)cc(F)c4)c4c(N)ncnc43)n(C3CCC3)c(=O)c12 [Compound 115] | < 100 |
| Cc1cccc2cc(Cn3nc(-c4ccc(Cl)c(O)c4)c4c(N)ncnc43)n(C(C)C)c(=O)c12 [Compound 123] | < 100 |
| Cc1cccc2cc(Cn3nc(-c4cccc(O)c4)c4c(N)ncnc43)n(C)c(=O)c12 [Compound 124] | < 1000 |
| Cc1cccc2cc(Cn3nc(-c4cc(O)cc(F)c4)c4c(N)ncnc43)n(C)c(=O)c12 [Compound 125] | < 100 |
| CCn1c(Cn2nc(-c3cccc(O)c3)c3c(N)ncnc32)cc2cccc(C)c2c1=O [Compound 126] | < 100 |
| Cc1cccc2cc(Cn3nc(-c4cc(O)cc(F)c4)c4c(N)ncnc43)n(C3CCOCC3)c(=O)c12 [Compound 128] | < 100 |
| CC(C)n1c(Cn2nc(-c3cccc(O)c3)c3c(N)ncnc32)cc2cccc(F)c2c1=O [Compound 133] | < 1000 |
| CC(C)n1c(Cn2nc(-c3cc(O)cc(F)c3)c3c(N)ncnc32)cc2cccc(F)c2c1=O [Compound 134] | < 100 |
| CC(C)n1c(Cn2nc(-c3cccc(O)c3)c3c(N)ncnc32)cc2ccccc2c1=O [Compound 135] | < 1000 |
| CC(C)n1c(Cn2nc(-c3cc(O)cc(F)c3)c3c(N)ncnc32)cc2ccccc2c1=O [Compound 136] | < 100 |
| CC(C)n1c(Cn2nc(-c3cccc(O)c3)c3c(N)ncnc32)cc2cccc(Cl)c2c1=O [Compound 137] | < 100 |
| CC(C)n1c(Cn2nc(-c3cc(O)cc(F)c3)c3c(N)ncnc32)cc2cccc(Cl)c2c1=O [Compound 138] | < 100 |
| Nc1ncnc2c1c(I)nn2Cc1cc2cccc(Cl)c2c(=O)n1C1CC1 [Compound 139] | < 100 |
| Nc1ncnc2c1c(-c1cccc(O)c1)nn2Cc1cc2cccc(Cl)c2c(=O)n1C1CC1 [Compound 141] | < 100 |
| Nc1ncnc2c1c(-c1cc(O)cc(F)c1)nn2Cc1cc2cccc(Cl)c2c(=O)n1C1CC1 [Compound 142] | < 100 |
| Nc1ncnc2c1c(-c1cc(O)cc(F)c1)nn2Cc1cc2cccc(F)c2c(=O)n1-c1ccccc1F [Compound 144] | < 100 |
| Cc1ccccc1-n1c(Cn2nc(-c3ccc4nc(N)sc4c3)c3c(N)ncnc32)cc2cccc(C)c2c1=O [Compound 145] | < 1000 |
| Cc1cccc2cc(Cn3nc(-c4cccc(O)c4)c4c(N)ncnc43)n(-c3ccccc3)c(=O)c12 [Compound 146] | < 100 |
| Cc1cccc2cc(Cn3nc(-c4cc(O)cc(F)c4)c4c(N)ncnc43)n(-c3ccccc3)c(=O)c12 [Compound 147] | < 100 |
| CNC(=O)Nc1nc2ccc(-c3nn(Cc4cc5cccc(C)c5c(=O)n4-c4ccccc4C)c4ncnc(N)c34)cc2s1 [Compound 148] | < 100 |
| Cc1ccccc1-n1c(Cn2nc(-c3ccc4nc(N)ccc4c3)c3c(N)ncnc32)cc2cccc(C)c2c1=O [Compound 149] | < 100 |

| Structure (SMILES) | EC50 [nM] |
| --- | --- |
| Cc1ccccc1-n1c(Cn2nc(-c3ccc4nc(N)ncc4c3)c3c(N)ncnc32)cc2cccc(C)c2c1=O [Compound 150] | < 100 |
| Cc1ccccc1-n1c(Cn2nc(-c3ccc4ncnc(N)c4c3)c3c(N)ncnc32)cc2cccc(C)c2c1=O [Compound 152] | < 1000 |
| CC(=O)Nc1nc2ccc(-c3nn(Cc4cc5cccc(C)c5c(=O)n4C)c4ncnc(N)c34)cc2s1 [Compound 153] | < 100 |
| CC(=O)Nc1nc2ccc(-c3nn(Cc4cc5cccc(C)c5c(=O)n4C(C)C)c4ncnc(N)c34)cc2s1 [Compound 154] | < 100 |
| CC(=O)Nc1nc2ccc(-c3nn(Cc4cc5cccc(C)c5c(=O)n4C4CC4)c4ncnc(N)c34)cc2s1 [Compound 155] | < 100 |
| CC(=O)Nc1nc2ccc(-c3nn(Cc4cc5cccc(Cl)c5c(=O)n4C4CC4)c4ncnc(N)c34)cc2s1 [Compound 156] | < 100 |
| CC(=O)Nc1nc2ccc(-c3nn(Cc4cc5cccc(Cl)c5c(=O)n4C(C)C)c4ncnc(N)c34)cc2s1 [Compound 157] | < 100 |
| CC(=O)Nc1nc2ccc(-c3nn(Cc4cc5cccc(F)c5c(=O)n4C(C)C)c4ncnc(N)c34)cc2s1 [Compound 158] | < 100 |
| CC(=O)Nc1nc2ccc(-c3nn(Cc4cc5cccc(C)c5c(=O)n4C4CCC4)c4ncnc(N)c34)cc2s1 [Compound 159] | < 100 |
| Cc1ccccc1-n1c(Cn2nc(-c3cn[nH]c3)c3c(N)ncnc32)cc2cccc(C)c2c1=O [Compound 160] | < 100 |
| Cc1cccc2cc(Cn3nc(-c4cn[nH]c4)c4c(N)ncnc43)n(-c3ccccc3F)c(=O)c12 [Compound 161] | < 1000 |
| Cc1ccccc1-n1c(Cn2nc(-c3cnn(CCO)c3)c3c(N)ncnc32)cc2cccc(C)c2c1=O [Compound 163] | < 1000 |
| Cc1cccc2cc(Cn3nc(-c4cn[nH]c4)c4c(N)ncnc43)n(-c3cccc(F)c3)c(=O)c12 [Compound 166] | < 100 |
| Cc1cccc2cc(C(C)Nc3ncnc4[nH]cnc34)n(-c3ccccc3F)c(=O)c12 (stereo not shown) [Compound 167] | < 100 |
| Cc1ccccc1-n1c(Cn2nc(C#N)c3c(N)ncnc32)cc2cccc(C)c2c1=O [Compound 170] | < 100 |
| Cc1cccc2cc(Cn3nc(/C=C4/SC(=O)NC4=O)c4c(N)ncnc43)n(-c3ccccc3F)c(=O)c12 [Compound 171] | < 100 |
| Cc1ccccc1-n1c(Cn2nc(/C=C3/SC(=O)NC3=O)c3c(N)ncnc32)cc2cccc(C)c2c1=O [Compound 173] | < 100 |
| Cc1ccccc1-n1c(Cn2nc(/C=C/C(N)=O)c3c(N)ncnc32)cc2cccc(C)c2c1=O [Compound 174] | < 100 |
| CCn1c(Cn2nc(-c3ccc4nc(NC(C)=O)sc4c3)c3c(N)ncnc32)cc2cccc(C)c2c1=O [Compound 176] | < 100 |
| CC(=O)Nc1nc2ccc(-c3nn(Cc4cc5cccc(C)c5c(=O)n4-c4ccccc4)c4ncnc(N)c34)cc2s1 [Compound 177] | < 100 |
| CC(=O)Nc1nc2ccc(-c3nn(Cc4cc5cccc(C)c5c(=O)n4-c4cccc(F)c4)c4ncnc(N)c34)cc2s1 [Compound 178] | < 100 |
| C=Cc1nn(Cc2cc3cccc(C)c3c(=O)n2-c2ccccc2C)c2ncnc(N)c12 [Compound 180] | < 100 |

Same assay, conditions: Mus musculus, read-out: B cell proliferation EC50 (nM)

| Structure (SMILES) | EC50 [nM] |
| --- | --- |
| Cc1cccc2cc(Cn3nc(C#N)c4c(N)ncnc43)n(-c3ccccc3F)c(=O)c12 [Compound 169] | < 1000 |
